Assay results reported in article PMC7332124, “Design, One Pot Synthesis and Molecular Docking Studies of Substituted-1H-Pyrido[2,1-b] Quinazolines as Apoptosis-Inducing Anticancer Agents” (Asian Pacific Journal of Cancer Prevention : APJCP, 2020).
Entries after “also recorded” stand apart in the source; their conditions may differ.

Legend:
Type in all cases: cell-based, human
HT-29 = experiment: MTT cytotoxicity assay; settings: Homo sapiens, HT-29 colorectal cancer, 72 h, read-out: In vitro Inhibitory Concentration (IC50)
Method: (§1) Various cancer cells were used to screen anticancer activity of newly synthesized compounds. Lung (A549 and NCI-H460), colon (HCT-15 and HT-29), prostate (DU-145) cancer cells maintained in RPMI-1640 media while normal lung fibroblasts cell line (HFL-1) were maintained in F-12 k medium supplemented with 10% fetal bovine serum (FBS) with 1% antibiotic-antimycotic solution (Sigma). Cells were maintained in 5% CO2 with 98% relative humidity at 37 °C in incubator. When 80-90% of confluency is reached, they were sub-cultured using 0.25% trypsin/1 mM EDTA solution for further passage. The compounds in this series were dissolved in DMSO (1 %) to prepare the stock solution of 10 mM. Further dilutions were made accordingly with respective media to obtain the required concentrations.
(§2) MTT assay measures the reduction of MTT (3-(4,5-dimethylthiazol- 2-yl)-2,5-diphenyl tetrazolium bromide) by mitochondrial succinate dehydrogenase enzyme to insoluble formazan crystals. Since reduction of MTT occurs only in metabolically active cells, the level of activity is the measure of the viability of the cells.(Pordeli et al., 2017). Briefly, cells were plated in 96-well plates at a density of 3,000 to 6,000 cells per well in 100 µl of complete medium and allowed to grow overnight. Then the cells were treated with different concentrations of the synthesized compounds and incubated for 72 h. After the treatment, 100 µl of MTT (0.5 mg/ml) was added and incubated at 37 °C for 4 h. Then MTT reagent was aspirated and formazan crystals formed were dissolved by the addition of 200 µL of DMSO for 20 min at 37 °C. The formazan product quantity was measured by using a spectrophotometric microtiter plate reader (Spectra Max, M4 Molecular devices, USA) at 570 nm wavelength(Nekkanti et al., 2017).

NCI-H460 = experiment: MTT cytotoxicity assay; settings: Homo sapiens, NCI-H460 lung carcinoma, 72 h, read-out: In vitro Inhibitory Concentration (IC50)
Method: as §1, §2

[1] = system: HFL-1 normal lung fibroblasts; experiment: MTT cytotoxicity assay; settings: Homo sapiens, HFL1, 72 h, read-out: In vitro Inhibitory Concentration (IC50)
Method: as §1, §2

A549 = experiment: MTT cytotoxicity assay
Method: as §1, §2

DU-145 = experiment: MTT cytotoxicity assay; settings: Homo sapiens, DU-145 prostate cancer, 72 h, read-out: In vitro Inhibitory Concentration (IC50)
Method: as §1, §2

HCT-15 = experiment: MTT cytotoxicity assay; settings: Homo sapiens, HCT-15 colon cancer, 72 h, read-out: In vitro Inhibitory Concentration (IC50)
Method: as §1, §2

A549 cells [2] = experiment: Morphological observation, phase contrast microscope; settings: 0.5, 1, 2.5 and 5 µM, 72 h
Method: A549 cells were plated in 12 well culture plates with a cell density of 1.2x10^5 cells/ml and allowed to adhere for 24 h. Then the cells were incubated with 0.5, 1, 2.5 and 5 µM concentrations of compound 4q. After 72 h treatment, cells were monitored for the morphological changes and the images were captured under a phase contrast microscope (Nikon, Inc. Japan) at 200X magnification.

A549 cells [3] = experiment: Mitochondrial membrane potential (JC-1, flow cytometry); settings: 0.5-5 µM, 72 h
Method: The cyanine dye JC-1 (5,5′,6,6′-tetrachloro-1,1′,3,3′-tetraethylbenzimidazolylcarbocyanine iodide) is a cell-penetrating dye that facilitates discrimination of energized and de energized mitochondria thus, high mitochondrial potential shifts its emission fluorescence from green to red (Vundru et al., 2013).This phenomenon was assessed by flow cytometry (FACS). A549 cells (1.5x10^6 cells/ml) were seeded in 12 well plates and allowed to adhere for overnight. Then the cells were incubated with compound 4q at 0.5, 1, 2.5 and 5 µM concentrations for 72 h. Cells were collected and washed with PBS and resuspended in solution of JC- 1 (1 µM) and incubated for 30 min in incubator at 37 °C. The cells were washed twice with PBS and cells were trypsinized, centrifuged and 10,000 events were analyzed by flow cytometer (BD FACSVerse™, USA).

A549 cells [4] = experiment: DAPI nuclear staining; settings: 0.5, 1, 2.5 and 5 µM, 72 h
Method: After treatment with compound 4q for 72 h, lung cancer cell line A549 were washed with PBS then fixed with 4% formaldehyde for 10 min and then permeabilized with 0.1% Tween 20 followed by staining with 1 µM DAPI. Control and treated cells were observed under fluorescence microscope with excitation at 359 nm and emission at 461 nm using DAPI filter at 200X magnification (Sgorbati et al., 1986).

A549 cells [5] = experiment: Annexin V-FITC/PI apoptosis assay (flow cytometry); settings: 72 h
Text: A fundamental part of apoptosis is the flipping of phosphatidyl serine (PS) from the inner surface to the outer surface of the plasma layer of the cells. PS is a component of phospholipid usually located on the cytoplasmic surface of the cell layer in viable cells. When the apoptotic condition is initiated in a cell, PS is no more restricted to the cytosolic region and will flip on the surface of the cell. Translocation of PS is considered to be a hall mark of apoptosis (Zhu et al., 2015). To experimentally address this phenomenon briefly, 1 X 10^5 cells were seeded in a 12-well plate and treated with different concentration of compound 4q and incubated for 72 h. Then untreated and treated cells were harvested and the cells were processed with annexin V-FITC and Propidium Iodide (PI) staining (Bio Legend), according to the manufacturer’s instructions. Further, early/late apoptosis and necrosis parameters were analyzed with quadrant statistics on propidium iodide-negative cells, fluorescein positive cells and propidium iodide-positive cells, respectively.

A549 cells [6] = experiment: Cell cycle analysis (propidium iodide, flow cytometry)
Method: In order to reveal whether arrest of cell cycle was mechanistically responsible for sensitizing lung cancer cells towards apoptosis, the flow cytometric analysis was performed to analyse the distribution of the cell population in various cell cycle phases (Mani et al., 2017). Here, A549 cancer cells were incubated with compound 4q at various concentrations ranging from 0.5 to 5 µM for 48 h. Untreated and treated cells were harvested, washed and fixed overnight in 70% ethanol in PBS at -20 °C. Fixed cells were pelleted and stained with cell cycle analysis reagent propidium iodide (50 μg/ml) with RNase A for 20 min at 37 °C in dark and about 10,000 events were acquired and analyzed on a flow cytometer (Kumar et al., 2018a).

C1=CC2=NC3=C(CCCC3)C(c3cn(Cc4ccccc4)c4ccccc34)N2C=C1 (centres unmarked) [Compound 4i, 11-(1-benzyl-1H-indol-3-yl)-2,3,4, 11-tetrahydro-1H-pyrido [2,1-b] quinazoline]
IC50 (HT-29): 11.57 ± 0.04 µM | IC50 (NCI-H460): 5.53 ± 0.49 µM | IC50 [1]: 8.7 ± 0.36 µM | IC50 (A549; Homo sapiens, A549 adenocarcinoma (lung), MTT, 72 h, read-out: In vitro Inhibitory Concentration (IC50)): 4.57 ± 0.25 µM | selectivity towards the cancer cells (A549; IC50 in HFL-1 normal fibroblasts versus lung cancer cells): approximately 2 fold | IC50 (DU-145): 9.15 ± 0.09 µM | IC50 (HCT-15): 11.3 ± 0.25 µM | morphological changes (phase contrast) (A549 cells [2]): shrinkage of cells and resulted in increased number of dead cells with increase in concentration | mitochondrial membrane potential (ΔΨm) (A549 cells [3]): significant collapse in the ΔΨm | nuclear changes by DAPI staining (A549 cells [4]): chromatin condensation, nuclear fragmentation, and horse shoe shaped nucleus | percentage of early apoptotic cells (EA; AV+/PI-) (A549 cells [5]; 5 µM, control 4.08 %): 26.90% | apoptosis induction (Annexin V-FITC/PI) (A549 cells [5]; 0.5 to 5 µM): significant early apoptosis | percentage of cells in G0/G1 (A549 cells [6]; 5 µM, control 63.53%): 80.02% | cell cycle phase arrest (A549 cells [6]; 0.5 to 5 µM): arrests the A549 cancer cell lines at the G0/G1 phase; also recorded: G0/G1 arrest of the cell cycle
